In assay [1] the target is T1, RON tyrosine kinase (Homo sapiens, UniProt Q04912).
T1 construct: purchased Carna Bioscience
The assay is described as follows: Enzyme inhibitory activity against RON tyrosine kinase (TR-FRET). Type of assay: biochemical. The note with it: RON (Carna Bioscience). Put shortly: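 Recombinant RON was preincubated with compound for 15 min at RT in 50 mM HEPES pH 7.5, 10 mM MgCl2, 1 mM EGTA, 2 mM DTT, 0.01% Tween-20. Enzyme (0.4 nM), ATP (60 μM) and tyrosine peptide (400 nM) were prepared at 2×, 4× and 4× final. After 60 min at RT, EDTA/Eu-anti-phosphotyrosine stop; IC50 from 665 nm TR-FRET emission.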
(TR-FRET usually uses a lanthanide donor and a delayed reading to cut background.)

For assay [2], the system named is cancer cell line KM12C, in which RON is activated. The assay is described as follows: Cell-killing efficacy in RON-activated cancer cell line (trypan blue). The note with it: Homo sapiens, 48 hours, trypan blue, n=2, read-out: Cell death (%) Cancer cell line KM12C. Type of assay: cell-based. The method in brief: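 KM12C cells seeded 1×10^5 per 60 mm^2 dish in MEM + 10% FBS, then exposed 24 h later to compound at 1 μM or 5 μM for 48 h.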

For assay [3], the system named is cancer cell line HT29, in which mutated RON (Δ160) is expressed. The assay is described as follows: Cell-killing efficacy in RON-mutated cancer cell line HT29 (trypan blue). The note with it: Homo sapiens, HT-29, 48 hours, trypan blue, n=2, read-out: Cell death (%) Cancer cell line HT29. Type of assay: cell-based. How it is done: (§1) Experimental Example 4: Measurement of Cell-Killing Efficacy of Example Compounds in RON-Mutated Cancer Cell Lines
(§2) Each of two colorectal cancer cell lines, that is, the cancer cell line HT29 (30038, KCLB, RPMI+10% FBS), in which mutated RON (Δ160) is expressed, and the cancer cell line SW620 (CCL-227, ATCC, RPMI+10% FBS), in which mutated RON (Δ155) is expressed, was dispensed into each 60 mm^2 dish at 1×10^5 cells. After 24 hours, the dish was treated with each of the example compounds at a concentration of 1 μM or 5 μM while performing medium exchange, and then reaction was allowed to proceed for 48 hours. After 48 hours, centrifugation was performed for 4 minutes at 1,500 rpm to collect cells and cell fluid. Thereafter, living cells and dead cells were quantified (n=2) using a trypan blue solution (15250-061, Gibco), and statistical analysis was performed using Excel-T-test. Here, as a negative control, only a solvent (0.10% DMSO) was used; and as a positive control, N-(4-(2-amino-3-chloropyridin-4-yloxy)-3-fluorophenyl)-4-ethoxy-1-(4-fluorophenyl)-2-oxo-1,2-dihydropyridine-3-carboxamide, which is the compound of Example 1 in WO 2008/058229 A1, was used.

For assay [4], the system named is cancer cell line KM12C, in which RON is activated. The assay is described as follows: Cell growth inhibitory ability in RON-activated cancer cell line (MTS). Type of assay: cell-based. The note with it: Homo sapiens, 48 hours, absorbance 490 nm. The method in brief:
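KM12C cells (RON-activated, MEM with FBS) exposed to compound […] for 48 h. MTS added 24 h after treatment ended, incubated 4 h at 37° C, absorbance read at 490 nm. IC50 derived from absorbance.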

The subject of assay [5] is cancer cell line SW620, in which mutated RON (Δ155) is expressed. The assay is described as follows: Cell-killing efficacy in RON-mutated cancer cell line SW620 (trypan blue). Type of assay: cell-based. The note with it: Homo sapiens, SW-620, 48 hours, trypan blue, n=2, read-out: Cell death (%) Cancer cell line SW620. How it is done: as §1, §2

We go through 13 compounds from patent publication US20220235064A1 (WELLMARKER BIO CO., LTD., priority 2019, published 2022).

Counter-ions that a name gives are not always drawn.

T1 sequence (Q04912 25-1400): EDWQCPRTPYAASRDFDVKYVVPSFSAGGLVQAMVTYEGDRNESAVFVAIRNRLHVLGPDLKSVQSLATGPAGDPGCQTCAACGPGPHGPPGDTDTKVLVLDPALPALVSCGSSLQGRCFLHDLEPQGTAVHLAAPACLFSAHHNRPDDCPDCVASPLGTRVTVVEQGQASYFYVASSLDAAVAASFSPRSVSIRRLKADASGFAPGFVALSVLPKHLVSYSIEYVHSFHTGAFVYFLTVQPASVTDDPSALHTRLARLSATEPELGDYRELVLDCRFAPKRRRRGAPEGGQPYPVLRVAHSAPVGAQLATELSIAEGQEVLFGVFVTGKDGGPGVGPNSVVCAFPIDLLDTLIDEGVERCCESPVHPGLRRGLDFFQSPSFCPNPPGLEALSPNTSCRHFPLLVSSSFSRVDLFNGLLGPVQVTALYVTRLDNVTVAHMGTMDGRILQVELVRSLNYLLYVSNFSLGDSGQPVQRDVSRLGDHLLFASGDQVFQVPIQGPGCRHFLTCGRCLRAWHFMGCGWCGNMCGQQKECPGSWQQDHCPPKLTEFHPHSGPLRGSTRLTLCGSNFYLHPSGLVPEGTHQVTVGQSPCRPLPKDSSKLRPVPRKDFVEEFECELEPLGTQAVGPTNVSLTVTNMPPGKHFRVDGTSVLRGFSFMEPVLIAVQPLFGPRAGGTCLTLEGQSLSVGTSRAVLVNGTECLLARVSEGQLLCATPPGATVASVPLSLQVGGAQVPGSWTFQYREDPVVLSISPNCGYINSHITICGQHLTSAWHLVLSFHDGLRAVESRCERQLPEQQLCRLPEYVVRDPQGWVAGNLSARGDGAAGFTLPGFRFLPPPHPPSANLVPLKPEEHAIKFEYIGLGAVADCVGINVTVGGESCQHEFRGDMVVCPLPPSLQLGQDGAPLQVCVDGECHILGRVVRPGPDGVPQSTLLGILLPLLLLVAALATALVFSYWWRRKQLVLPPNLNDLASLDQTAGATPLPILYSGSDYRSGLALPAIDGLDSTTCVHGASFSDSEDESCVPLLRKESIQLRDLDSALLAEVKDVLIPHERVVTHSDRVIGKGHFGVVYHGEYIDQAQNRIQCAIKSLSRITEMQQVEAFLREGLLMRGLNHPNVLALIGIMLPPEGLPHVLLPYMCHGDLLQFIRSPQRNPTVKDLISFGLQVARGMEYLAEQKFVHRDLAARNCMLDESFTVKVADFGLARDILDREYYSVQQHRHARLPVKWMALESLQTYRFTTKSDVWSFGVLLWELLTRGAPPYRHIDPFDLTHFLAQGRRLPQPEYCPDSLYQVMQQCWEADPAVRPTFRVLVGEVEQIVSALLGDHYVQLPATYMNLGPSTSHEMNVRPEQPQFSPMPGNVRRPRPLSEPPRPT

As for `COCCNCc1ccc(-c2cc3nccc(Oc4ccc(NC(=O)c5c6c(cn(-c7ccccc7)c5=O)CCO6)cc4F)c3s2)nc1` [Example 2, N-(3-Fluoro-4-((2-(5-(((2-methoxyethyl)amino)methyl)pyridin-2-yl)thieno[3,2-b]pyridin-7-yl)oxy)phenyl)-6-oxo-5-phenyl-2,3,5,6-tetrahydrofuro[3,2-c]pyridine-7-carboxamide hydrochloride], the IC50 in assay [1] was determined as 1.25 nM; in assay [4], 67 nM. The figures for the cytotoxicity at 1 µM in assay [2] and in assay [3] were 38.4% and 15.4%, respectively. The values for the cytotoxicity at 5 µM in assay [2] and in assay [3] were 93.4% and 80.5%, respectively.
For `COc1cc2c(Oc3ccc(NC(=O)c4c5c(cn(-c6ccc(F)cc6)c4=O)CCO5)cc3F)ccnc2cc1OCCN1CCS(=O)(=O)CC1` [Example 142, N-(4-((7-(2-(1,1-Dioxidothiomorpholino)ethoxy)-6-methoxyquinolin-4-yl)oxy)-3-fluorophenyl)-5-(4-fluorophenyl)-6-oxo-2,3,5,6-tetrahydrofuro[3,2-c]pyridine-7-carboxamide], the cytotoxicity at 1 µM is 74% in assay [5] and 34% in assay [2]. Besides, the results for the cytotoxicity at 5 µM in assay [5] and in assay [2] were 67.6% and 40%, respectively. Further, half-maximal inhibition in assay [4] (IC50) required 1 nM.
On to `COC1CCN(Cc2ccc(-c3cc4nccc(Oc5ccc(NC(=O)c6c7c(cn(-c8ccc(F)cc8)c6=O)CCO7)cc5F)c4s3)nc2)CC1` [Example 31, N-(3-Fluoro-4-((2-(5-((4-methoxypiperidin-1-yl)methyl)pyridin-2-yl)thieno[3,2-b]pyridin-7-yl)oxy)phenyl)-5-(4-fluorophenyl)-6-oxo-2,3,5,6-tetrahydrofuro[3,2-c]pyridine-7-carboxamide], for which the values for the cytotoxicity at 1 µM in assay [5] and in assay [2] were 15.4% and 40.9%, respectively. Moreover, the cytotoxicity at 5 µM in assay [5] amounted to 47%; in assay [2], 52%. The same compound gave an IC50 in assay [4] of 2 nM.
Turning to `COc1cc2c(Oc3ccc(NC(=O)c4c5c(cn(-c6ccc(F)cc6)c4=O)CCO5)cc3F)ccnc2cc1NC(=O)CN1CCOCC1` [Example 182, N-(3-Fluoro-4-((6-methoxy-7-(2-morpholinoacetamido)quinolin-4-yl)oxy)phenyl)-5-(4-fluorophenyl)-6-oxo-2,3,5,6-tetrahydrofuro[3,2-c]pyridine-7-carboxamide], the IC50 amounted to 3.35 nM in assay [1] and 8 nM in assay [4]. Besides, the cytotoxicity at 1 µM in assay [2] turned out to be 25.1%; in assay [3], 7.6%. Moreover, the cytotoxicity at 5 µM was determined as 44.4% in assay [2] and 10.2% in assay [3].
In the case of `COc1cc2nccc(Oc3ccc(NC(=O)c4c5c(cn(-c6ccc(F)cc6)c4=O)CCO5)cc3F)c2cc1C(N)=O` [Example 47, N-(4-((6-Carbamoyl-7-methoxyquinolin-4-yl)oxy)-3-fluorophenyl)-5-(4-fluorophenyl)-6-oxo-2,3,5,6-tetrahydrofuro[3,2-c]pyridine-7-carboxamide], the IC50 in assay [1] came to 0.47 nM. Also, in assay [2], the cytotoxicity at 1 µM was 18% and the cytotoxicity at 5 µM came out at 30.9%. The same compound came in with an IC50 in assay [4] of 2 nM.
With `COCCNCc1ccc(-c2cc3nccc(Oc4ccc(NC(=O)c5c6c(cn(-c7ccc(F)cc7)c5=O)CCO6)cc4F)c3s2)nc1` [Example 1, N-(3-Fluoro-4-((2-(5-(((2-methoxyethyl)amino)methyl)pyridin-2-yl)thieno[3,2-b]pyridin-7-yl)oxy)phenyl)-5-(4-fluorophenyl)-6-oxo-2,3,5,6-tetrahydrofuro[3,2-c]pyridine-7-carboxamide hydrochloride], the figures for the IC50 in assay [1] and in assay [4] were 0.82 nM and 2 nM, respectively. Further, the cytotoxicity at 1 µM in assay [2] came to 10.3%; in assay [3], 9.35%. Moreover, the cytotoxicity at 5 µM was 68.6% in assay [2] and 38.2% in assay [3].
In turn, `COc1cc2nccc(Oc3ccc(NC(=O)c4c5c(cn(-c6ccc(F)cc6)c4=O)CCO5)cc3F)c2cc1NC(=O)CCN1CCOCC1` [Example 180, N-(3-Fluoro-4-((7-methoxy-6-(3-morpholinopropanamido)quinolin-4-yl)oxy)phenyl)-5-(4-fluorophenyl)-6-oxo-2,3,5,6-tetrahydrofuro[3,2-c]pyridine-7-carboxamide] showed an IC50 in assay [1] of 6.83 nM. Also, in assay [2], the cytotoxicity at 1 µM was found to be 18.1% and the cytotoxicity at 5 µM amounted to 20.6%. In assay [4], this compound showed an IC50 of 3 nM.
For the compound `COc1cc2c(Oc3ccc(NC(=O)c4c5c(cn(-c6ccc(F)cc6)c4=O)CCO5)cc3F)ccnc2cc1OCCCN1CCN(C)CC1` [Example 80, N-(3-Fluoro-4-((6-methoxy-7-(3-(4-methylpiperazin-1-yl)propoxy)quinolin-4-yl)oxy)phenyl)-5-(4-fluorophenyl)-6-oxo-2,3,5,6-tetrahydrofuro[3,2-c]pyridine-7-carboxamide], the IC50 in assay [1] stood at 1.3 nM. In assay [2], the cytotoxicity at 1 µM was determined as 19.5% and the cytotoxicity at 5 µM is 19.9%. Further, the IC50 in assay [4] came out at 3 nM.
`COc1cc2c(Oc3ccc(NC(=O)c4c5c(cn(-c6ccc(F)cc6)c4=O)CCO5)cc3F)ccnc2cc1NC(=O)CCN1CCOCC1` [Example 183, N-(3-Fluoro-4-((6-methoxy-7-(3-morpholinopropanamido)quinolin-4-yl)oxy)phenyl)-5-(4-fluorophenyl)-6-oxo-2,3,5,6-tetrahydrofuro[3,2-c]pyridine-7-carboxamide]: the IC50 in assay [1] was 2.5 nM; in assay [4], 3 nM. Further, the cytotoxicity at 1 µM was 27.3% in assay [2] and 7.8% in assay [3]. In addition, the cytotoxicity at 5 µM in assay [2] was found to be 40.3%; in assay [3], 87.5%.
Consider `COc1cc2nccc(Oc3ccc(NC(=O)c4c5c(cn(-c6ccc(F)cc6)c4=O)CCO5)cc3F)c2cc1OCCCN1CCOCC1` [Example 176, N-(3-Fluoro-4-((7-methoxy-6-(3-morpholinopropoxy)quinolin-4-yl)oxy)phenyl)-5-(4-fluorophenyl)-6-oxo-2,3,5,6-tetrahydrofuro[3,2-c]pyridine-7-carboxamide], for which the IC50 in assay [1] was found to be 0.1 nM. Further, in assay [2], the cytotoxicity at 1 µM was 4.1% and the cytotoxicity at 5 µM turned out to be 20.2%. Also, in assay [4], the IC50 turned out to be 2 nM.
In the case of `Cn1ncc2cc(Oc3ccc(NC(=O)c4c5c(cn(-c6ccc(F)cc6)c4=O)CCO5)cc3F)c(-c3cn[nH]c3)cc21` [Example 64], the IC50 in assay [1] amounted to 14.2 nM. Further, in assay [2], the cytotoxicity at 1 µM was 13.1% and the cytotoxicity at 5 µM was 97.1%. Further, in assay [3], the cytotoxicity at 1 µM is 16% and the cytotoxicity at 5 µM is 18.8%.
Compound `O=C(Nc1ccc(Oc2ccnc3cc(-c4ccc(CN5CCOCC5)cn4)sc23)c(F)c1)c1c2c(cn(-c3ccccc3)c1=O)CCO2` [Example 6, N-(3-Fluoro-4-((2-(5-(morpholinomethyl)pyridin-2-yl)thieno[3,2-b]pyridin-7-yl)oxy)phenyl)-6-oxo-5-phenyl-2,3,5,6-tetrahydrofuro[3,2-c]pyridine-7-carboxamide hydrochloride] displayed an IC50 in assay [1] of 1.43 nM. In assay [2], the cytotoxicity at 1 µM came out at 29.3% and the cytotoxicity at 5 µM stood at 34.3%. Also, the IC50 in assay [4] stood at 2 nM.
The like results for `CNC(=O)c1cc2nccc(Oc3ccc(NC(=O)c4c5c(cn(-c6ccc(F)cc6)c4=O)CCO5)cc3F)c2cc1OC` [Example 165, N-(3-Fluoro-4-((6-methoxy-7-(methylcarbamoyl)quinolin-4-yl)oxy)phenyl)-5-(4-fluorophenyl)-6-oxo-2,3,5,6-tetrahydrofuro[3,2-c]pyridine-7-carboxamide] were, in that order, 0.45 nM, 7.3%, 32.9% and 3 nM.

The IC50 is the concentration that inhibits the measured activity by half. Low values mean inhibition by little substance, high ones a need for much substance.
